Holding throughout (experiment): NCI tumour cell line growth inhibition, 48 h
In assay [1] the test system is KM12.
Assay [2] deals with SK-MEL-28.
In assay [3] the test system is ACHN.
The test system of assay [4] is U-251.
Assay [5] deals with HCT-15.
The test system of assay [6] is UACC-62.
The test system of assay [7] is NCI-H460.
Assay [8] has as its system CAKI-1.
For assay [9], the system named is TK-10.
The subject of assay [10] is MCF7.
The subject of assay [11] is MDA-MB-435.
The test system of assay [12] is EKVX.
Assay [13] has as its system RPMI-8226.
The subject of assay [14] is NCI-H522.
Assay [15] concerns SK-MEL-5.
Assay [16] relates to SF-268.
The subject of assay [17] is OVCAR-4.
Assay [18] concerns RXF 393.
Assay [19] concerns Hs-578T.
The subject of assay [20] is HOP-92.

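In this assay, cells in 96-well plates receive the compound at five concentrations for 48 hours. Endpoints are linearly interpolated between the surrounding concentrations. GI50: concentration for 50% inhibition of growth.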 Calls of active or inactive are those of the source. Rule as the data show it: active = GI50 up to about 1.1 µM and inactive = higher. Bounds are passed on as bounds.

On to `O=C(O)c1ccccc1/C=N/N=C1c2ccccc2-c2ccccc21`, for which the GI50 is 22.2 µM (inactive) in assay [1]; 51.2 µM (inactive) in assay [2]; 45.1 µM (inactive) in [3]; 22 µM (inactive) in [4]; 44.8 µM in assay [5]; 44.9 µM (inactive) in assay [6]. The GI50 was 26.7 µM (inactive) in [7]; 35.3 µM (inactive) in [8]; 74.8 µM (inactive) in assay [9]; 31.2 µM (inactive) in assay [10]; 29.9 µM (inactive) in assay [11]; 29 µM (inactive) in [12]. For the same compound, the GI50 in [13] is 20.2 µM (inactive); in assay [14], 28.6 µM (inactive); in assay [15], 33.3 µM (inactive); in assay [16], 21.3 µM (inactive); in [17] it was 35.2 µM (inactive); in assay [18] it was 29 µM (inactive). The values for the GI50 in assay [19] and in [20] were 3.94 µM (inactive) and 35.3 µM (inactive), respectively.

For `O=[N+]([O-])c1ccc(/N=N\c2c(O)ccc3ccccc23)c([N+](=O)[O-])c1`, the GI50 in assay [1] was > 100 µM (inactive); in assay [2] it was > 100 µM (inactive); in [3], > 100 µM (inactive); in assay [4], > 100 µM (inactive); in assay [5], over 100 µM; in assay [6] it was > 100 µM (inactive). The GI50 in [7] is > 100 µM (inactive); in assay [8], > 100 µM (inactive); in assay [9], > 90.4 µM (inactive); in assay [10] it was > 100 µM (inactive); in [11], > 100 µM (inactive); in assay [12], > 60.4 µM (inactive). For the same compound, the GI50 in assay [13] is > 83.4 µM (inactive); in assay [14], > 100 µM (inactive); in assay [15], > 100 µM (inactive); in assay [16] it was > 100 µM (inactive); in [17], > 100 µM (inactive); in assay [18] it was > 100 µM (inactive). The GI50 in assay [19] and in assay [20] was > 100 µM (inactive) in each case.

As for `CC(C)=CCC[C@@H](C)c1c2ncc[nH]c-2c(C)c(=O)c1O`, the GI50 is 10.6 µM (inactive) in assay [1]; 48.5 µM (inactive) in assay [2]; 12.4 µM (inactive) in assay [3]; 43.6 µM (inactive) in assay [4]; 6.46 µM in assay [5]; 18.7 µM (inactive) in [6]. Moreover, the GI50 in assay [7] was 10.8 µM (inactive); in [8], 35.1 µM (inactive); in assay [9], 31.1 µM (inactive); in [10], 36.8 µM (inactive); in assay [11], 41.9 µM (inactive); in assay [12], 26.2 µM (inactive). Besides, the GI50 in assay [13] was 20 µM (inactive); in [14] it was 1.76 µM (inactive); in assay [15] it was 11.7 µM (inactive); in assay [16] it was 15.2 µM (inactive); in [17] it was 26.1 µM (inactive); in assay [18] it was 24.6 µM (inactive). The GI50 is 23.2 µM (inactive) in assay [19] and 23.8 µM (inactive) in assay [20].

Take `N#C/C(=C\c1c[nH]c2ccccc12)C(=O)c1ccc(O)c(O)c1`: the GI50 in assay [1] is 27.7 µM (inactive); in assay [2], 47.3 µM (inactive); in assay [3], 27.8 µM (inactive); in assay [4] it was 20.4 µM (inactive); in [5], 22.9 µM; in [6], 28.8 µM (inactive). Also, the GI50 is 24.5 µM (inactive) in assay [7]; 41.5 µM (inactive) in assay [8]; 51.2 µM (inactive) in [9]; 12 µM (inactive) in [10]; 20.8 µM (inactive) in assay [11]; 34.8 µM (inactive) in [12]. Further, the GI50 in [13] is 15.4 µM (inactive); in assay [14], 13.5 µM (inactive); in [15], 35.5 µM (inactive); in [16], 39.7 µM (inactive); in assay [17], 27.2 µM (inactive); in assay [18], 38.9 µM (inactive). For the same compound, the values for the GI50 in assay [19] and in assay [20] were 47.2 µM (inactive) and 32.1 µM (inactive), respectively.

On to `O=c1[nH]nc(-c2ccccc2)c2[nH]c3c(c12)Cc1ccccc1-3`, for which the GI50 is < 0.0306 µM (active) in [1]; 6.01 µM (inactive) in assay [2]; 6.18 µM (inactive) in assay [3]; 3.64 µM (inactive) in assay [4]; 0.374 µM in assay [5]; 0.299 µM (active) in assay [6]. Further, the GI50 in assay [7] was 2.11 µM (inactive); in [8], 13.8 µM (inactive); in assay [9] it was 7.59 µM (inactive); in [10] it was 0.158 µM (active); in assay [11] it was 0.386 µM (active); in assay [12] it was 6.79 µM (inactive). For the same compound, the GI50 in assay [13] was 2.37 µM (inactive); in [14], 0.295 µM (active); in assay [15], 0.115 µM (active); in assay [16], 2.87 µM (inactive); in [17] it was 3.79 µM (inactive); in assay [18], 6.19 µM (inactive). Besides, the GI50 in assay [19] was 5.46 µM (inactive); in [20], 1.67 µM (inactive).

With `CC(=O)/C=N/CC(=O)O`, the GI50 in [1] was > 100 µM (inactive); in assay [2], > 100 µM (inactive); in [3] it was > 100 µM (inactive); in [4] it was > 100 µM (inactive); in assay [5], over 100 µM; in assay [6], > 100 µM (inactive). Also, the GI50 in assay [7], in assay [8], in assay [9], in assay [10], in assay [11] and in assay [12] was > 100 µM (inactive) in each case. Besides, the GI50 in [13], in assay [14], in assay [15], in assay [16], in assay [17] and in assay [18] was > 100 µM (inactive) in each case. Besides, the GI50 in [19] and in [20] was > 100 µM (inactive) each time.

For `CC(=O)OC12CC(C)C3(O)C4C=C(C)C(=O)[C@@]4(O)CC(CO)=C[C@H]3C1C2(C)C` (stereo not given in full), the GI50 was > 10 µM (inactive) in assay [1]; > 10 µM (inactive) in [2]; > 10 µM (inactive) in assay [3]; > 10 µM (inactive) in assay [4]; over 10 µM in [5]; 771 µM (inactive) in assay [6]. In addition, the GI50 in [7] was > 100 µM (inactive); in [8] it was 4.7 µM (inactive); in assay [9], 2.34 µM (inactive); in assay [10] it was > 10 µM (inactive); in assay [11] it was 3.67 µM (inactive); in [12], > 10 µM (inactive). For the same compound, the GI50 in assay [13] is > 10 µM (inactive); in [14] it was > 10 µM (inactive); in assay [15] it was 5.2 µM (inactive); in [16] it was > 10 µM (inactive); in [17] it was > 10 µM (inactive); in assay [18], > 100 µM (inactive). Also, the GI50 in [19] is 0.82 µM (active); in assay [20], 65.8 µM (inactive).
